Experimental findings from PMC7693880, “Preparation and Evaluation of Amino Acid Conjugates of Celecoxib as Prodrugs to Improve the Pharmacokinetic and Therapeutic Properties of Celecoxib” (Pharmaceutics, 2020) are described below.

As usually defined, the melting point is the temperature of the solid-liquid transition. For orientation: half-life means the time needed for the level to fall by half in the phase considered. High values mean slow loss, low ones fast loss. The term AUC(0-inf) denotes total exposure, with the tail of the curve extrapolated.

Data set [1] can be described thus: Drug release study in cecal contents. In kind it is in vitro ADME, Sprague Dawley rats. The note with it: incubation with cecal contents, after 24 h. Here is the method:
Drug release study was performed with the celecoxib derivatives as described previously. Six-week-old male Sprague Dawley rats (250–260 g) were sacrificed using CO2, and a midline incision was made. The contents of the proximal small intestine, distal small intestine, and cecum, liver homogenate, or blood plasma were collected and suspended in IPB (20% (w/v)). A1C, G1C, or N-GA1C in the buffer (0.5 mL, 1 mM) was mixed with 0.5 mL of the suspension and then incubated at 37 °C under nitrogen gas. At the predetermined time points, the samples were extracted with 0.5 mL of ethyl acetate followed by centrifugation at 6000× g for 5 min. Methanol (1.0 mL) was added to the residue obtained from the evaporation of 0.1 mL of the organic layer. The solution was centrifuged at 20,000× g at 4 °C for 10 min. The concentrations of celecoxib, A1C, G1C, and N-GA1C in 20 μL of the supernatant were determined by HPLC.

The nature of data set [2]: Pharmacokinetic study after oral or intravenous administration. It is filed as in vivo, Sprague Dawley rats. The note with it: rat; for increase of the absolute BA of celecoxib: 20 mg/kg. Here is the method: Blood samples were collected from the jugular vein using a heparinized syringe at predetermined times. Heparinized blood samples were immediately centrifuged at 6000× g for 5 min. Five-fold volume of ethyl acetate was mixed with plasma, centrifugation was performed at 6000× g for 5 min, and 1 mL of the organic solvent was evaporated. The residues were mixed with 0.1 mL of IPB and centrifuged at 20,000× g for 10 min at 4 °C. The concentration of celecoxib or N-GA1C in the samples was determined by HPLC. PK profiling was performed using PKsolver. Absolute BA and relative BA were calculated using the following equations: Absolute BA (F, %) = ((AUC0–∞)PO/dose PO)/((AUC0–∞)IV/dose IV); Relative BA (%) = ((AUC0–∞)A/dose A)/((AUC0–∞)B/dose B).

Data set [3] is described as follows: Apparent distribution coefficient (logD6.8) measurement, 1-octanol / pH 6.8 isotonic phosphate buffer. It is filed as physicochemical. The note with it: 37 °C; for logD: pH 6.8, 1-octanol / pH 6.8 isotonic phosphate buffer, read-out: Log D6.8 (apparent distribution coefficient). Here is the method: For this study, 1-octanol and pH 6.8 isotonic phosphate buffer (IPB) were pre-saturated with IPB and 1-octanol, respectively. 1-octanol (10 mL) was added to 500 μM of celecoxib, A1C, or N-GA1C in 10 mL IPB. The mixture was shaken for 1 h and left at 37 °C for 3 h. The concentration of celecoxib, A1C, G1C, or N-GA1C in the aqueous phase was analyzed by HPLC. The apparent partition coefficients were calculated using the equation (Co − Cw)/Cw, where Co and Cw represent the initial and equilibrium concentration of the drug in the aqueous phase, respectively.

Data set [4] concerns carrageenan-induced paw edema. The experiment in a line: Carrageenan-induced rat paw edema model. In kind it is in vivo, Sprague Dawley rats. Particulars: oral 10 mg/kg (equivalent mass of celecoxib). Here is the method:
Six-week-old male Sprague Dawley rats (250–260 g) were orally administered celecoxib (10 mg/kg), A1C (equivalent mass of celecoxib), G1C (equivalent mass of celecoxib), N-GA1C (equivalent mass of celecoxib), or IPB as a control. After 1 h, 0.1 mL of carrageenan (1%) was injected into the hind paw of the rats. Carrageenan-induced increase in paw volume (paw edema) was measured at predetermined time points (0, 3, 6, 12, and 24 h). The paw volume of rats up to the knee joint was measured using a plethysmometer. The degree of inhibition of paw edema (%) at each time point was calculated using the following equation: (Control volume − treatment group volume)/Control paw volume × 100.
(In general: Carrageenan injected into the paw causes an acute inflammation.)

[5] abbreviates: male, Sprague Dawley, plasma, IV, 10 mg/kg.

Molecules are shown by their SMILES. Structures can show the parent of a compound that is named as a salt.

In turn, `Cc1ccc(-c2cc(C(F)(F)F)nn2-c2ccc(S(=O)(=O)NC(=O)[C@@H](N)CC(=O)O)cc2)cc1` (as salt: salt) [A1C, aspart-1-yl celecoxib] displayed a melting point of 134 to 137 °C.

Take `Cc1ccc(-c2cc(C(F)(F)F)nn2-c2ccc(S(=O)(=O)NC(=O)C(N)CCC(=O)O)cc2)cc1` (stereo not shown) [G1C, glutam-1-yl celecoxib]: the conversion to celecoxib entry in data set [1] is given as “partially converted to celecoxib”. Further, in data set [2] (oral, vs oral celecoxib), the “increase of the absolute BA of celecoxib” value is recorded as “three”. Further, in data set [3], the “Log D6.8 (apparent distribution coefficient)” value was 0.81 and the logD turned out to be 0.8.

Turning to `Cc1ccc(-c2cc(C(F)(F)F)nn2-c2ccc(S(=O)(=O)NC(=O)[C@@H](N)CC(=O)O)cc2)cc1` [A1C, aspart-1-yl celecoxib], the conversion to celecoxib result in data set [1] is listed as “partially converted to celecoxib”. The “increase in absolute BA” value in data set [2] (oral, 10 mg/kg, vs oral celecoxib) was “no increase”. Moreover, the “increase of the absolute BA of celecoxib” value in data set [2] (oral, vs oral celecoxib) is listed as “approximately two”. Further, the logD in data set [3] came to 0.6.

In data set [2] (setting [5]), `Cc1ccc(-c2cc(C(F)(F)F)nn2-c2ccc(S(N)(=O)=O)cc2)cc1` [Celecoxib] gave a Vd of 1.04 L/kg, a clearance of 8.01 mL/min/kg and a half-life of 1.5 h. The area under the curve AUC(0-inf) in data set [2] (male, Sprague Dawley, IV, 10 mg/kg, celecoxib in plasma) came out at 6120 ± 520 ng·h/mL. Also, the AUC(0-t) in data set [2] (male, Sprague Dawley, IV, 10 mg/kg, celecoxib in plasma, read-out: AUC0–24) is 5990 ± 440 ng·h/mL. In data set [3], the logD turned out to be 4.01. Also, the “volume reduction of paw edema” value in data set [4] (at 6 h) came to 42.06 ± 4.69%. Also, the “volume reduction of paw edema” value in data set [4] (at 24 h) is recorded as 20.99 ± 2.791%.

`Cc1ccc(-c2cc(C(F)(F)F)nn2-c2ccc(S(=O)(=O)NC(=O)C(CC(=O)O)NC(=O)CN)cc2)cc1` (stereo not shown) [N-GA1C, N-glycyl-aspart-1-yl celecoxib]: in data set [2] (oral N-GA1C 10 mg/kg, for 24 h), the “plasma concentration of N-GA1C” value is recorded as “not detected”. Moreover, the logD in data set [3] is -0.13. Also, the “volume reduction of paw edema” value in data set [4] (at 6 h) came to 32.42 ± 2.50%; in data set [4] (at 24 h), 78.96 ± 1.56%.

The compound `Cc1ccc(-c2cc(C(F)(F)F)nn2-c2ccc(S(=O)(=O)NC(=O)C(N)CCC(=O)O)cc2)cc1` (stereo not shown) (as salt: salt) [G1C, glutam-1-yl celecoxib] displayed a melting point of 110 to 115 °C.
